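Interpolation was linear, between the two tested concentrations surrounding the appropriate level; five concentrations were tested over 48 hours in 96-well plates. TGI: concentration producing complete growth inhibition.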
Assays:
Assay in all cases: DTP human tumour cell line panel, 48 h
HCT-15 colon = tested on: HCT-15 colon
SNB-19 CNS = tested on: SNB-19 CNS
SK-MEL-2 melanoma = tested on: SK-MEL-2 melanoma
OVCAR-5 ovarian = tested on: OVCAR-5 ovarian
LOX IMVI melanoma = tested on: LOX IMVI melanoma
SN12C renal = tested on: SN12C renal
MOLT-4 leukemia = tested on: MOLT-4 leukemia
IGROV1 ovarian = tested on: IGROV1 ovarian
SW-620 colon = tested on: SW-620 colon
SNB-75 CNS = tested on: SNB-75 CNS
UACC-257 melanoma = tested on: UACC-257 melanoma
NCI-H522 lung = tested on: NCI-H522 lung
SF-295 CNS = tested on: SF-295 CNS
CAKI-1 renal = tested on: CAKI-1 renal
COLO 205 colon = tested on: COLO 205 colon
U251 CNS = tested on: U251 CNS
EKVX NSCLC = tested on: EKVX NSCLC
SR leukemia = tested on: SR leukemia
HCT-116 colon = tested on: HCT-116 colon
DLD-1 colon = tested on: DLD-1 colon
NCI-H460 lung = tested on: NCI-H460 lung
OVCAR-8 ovarian = tested on: OVCAR-8 ovarian
HT29 colon = tested on: HT29 colon
HOP-62 NSCLC = tested on: HOP-62 NSCLC
A549 NSCLC = tested on: A549 NSCLC
786-0 renal = tested on: 786-0 renal
M14 melanoma = tested on: M14 melanoma
HL-60(TB) leukemia = tested on: HL-60(TB) leukemia
RXF 393 renal = tested on: RXF 393 renal
KM20L2 colon = tested on: KM20L2 colon
DMS 114 small cell lung = tested on: DMS 114 small cell lung
HOP-18 NSCLC = tested on: HOP-18 NSCLC
K-562 leukemia = tested on: K-562 leukemia
SF-268 CNS = tested on: SF-268 CNS
NCI-H23 lung = tested on: NCI-H23 lung
HOP-92 NSCLC = tested on: HOP-92 NSCLC
UACC-62 melanoma = tested on: UACC-62 melanoma
HCC-2998 colon = tested on: HCC-2998 colon
OVCAR-3 ovarian = tested on: OVCAR-3 ovarian
SNB-78 CNS = tested on: SNB-78 CNS
SK-OV-3 ovarian = tested on: SK-OV-3 ovarian
MALME-3M melanoma = tested on: MALME-3M melanoma
UO-31 renal = tested on: UO-31 renal
ACHN renal = tested on: ACHN renal
LXFL 529 NSCLC = tested on: LXFL 529 NSCLC
KM12 colon = tested on: KM12 colon
OVCAR-4 ovarian = tested on: OVCAR-4 ovarian
TK-10 renal = tested on: TK-10 renal
M19-MEL melanoma = tested on: M19-MEL melanoma
SK-MEL-28 melanoma = tested on: SK-MEL-28 melanoma
NCI-H226 lung = tested on: NCI-H226 lung
SK-MEL-5 melanoma = tested on: SK-MEL-5 melanoma
A498 renal = tested on: A498 renal
RPMI-8226 leukemia = tested on: RPMI-8226 leukemia
CCRF-CEM leukemia = tested on: CCRF-CEM leukemia
DMS 273 small cell lung = tested on: DMS 273 small cell lung
HS 578T breast = tested on: HS 578T breast
NCI/ADR-RES ovarian = tested on: NCI/ADR-RES ovarian
MDA-MB-435 = tested on: MDA-MB-435
DU-145 prostate = tested on: DU-145 prostate
T-47D breast = tested on: T-47D breast
MDA-MB-231 breast = tested on: MDA-MB-231 breast
MDA-N = tested on: MDA-N
MCF7 breast = tested on: MCF7 breast
PC-3 prostate = tested on: PC-3 prostate
BT-549 breast = tested on: BT-549 breast
SF-539 CNS = tested on: SF-539 CNS

What does the source list for CCOC(=O)/C=C1\Oc2ccccc2C1(C)O (stereo not given)?
TGI (HCT-15 colon): > 100 µM; TGI (SNB-19 CNS): > 100 µM; TGI (SK-MEL-2 melanoma): > 100 µM; TGI (OVCAR-5 ovarian): > 100 µM; TGI (LOX IMVI melanoma): > 100 µM; TGI (SN12C renal): > 100 µM; TGI (MOLT-4 leukemia): > 100 µM; TGI (IGROV1 ovarian): > 100 µM; TGI (SW-620 colon): > 100 µM; TGI (SNB-75 CNS): > 100 µM; TGI (UACC-257 melanoma): > 100 µM; TGI (NCI-H522 lung): > 100 µM; TGI (SF-295 CNS): > 100 µM; TGI (CAKI-1 renal): > 100 µM; TGI (COLO 205 colon): > 100 µM; TGI (U251 CNS): > 100 µM; TGI (EKVX NSCLC): > 100 µM; TGI (SR leukemia): > 100 µM; TGI (HCT-116 colon): > 100 µM; TGI (DLD-1 colon): > 100 µM; TGI (NCI-H460 lung): > 100 µM; TGI (OVCAR-8 ovarian): > 100 µM; TGI (HT29 colon): > 100 µM; TGI (HOP-62 NSCLC): > 100 µM; TGI (A549 NSCLC): > 100 µM; TGI (786-0 renal): > 100 µM; TGI (M14 melanoma): > 100 µM; TGI (HL-60(TB) leukemia): > 100 µM; TGI (RXF 393 renal): > 100 µM; TGI (KM20L2 colon): > 100 µM; TGI (DMS 114 small cell lung): > 100 µM; TGI (HOP-18 NSCLC): > 100 µM; TGI (K-562 leukemia): > 100 µM; TGI (SF-268 CNS): > 100 µM; TGI (NCI-H23 lung): > 100 µM; TGI (HOP-92 NSCLC): > 100 µM; TGI (UACC-62 melanoma): > 100 µM; TGI (HCC-2998 colon): > 100 µM; TGI (OVCAR-3 ovarian): > 100 µM; TGI (SNB-78 CNS): > 100 µM; TGI (SK-OV-3 ovarian): > 100 µM; TGI (MALME-3M melanoma): > 100 µM; TGI (UO-31 renal): > 100 µM; TGI (ACHN renal): > 100 µM; TGI (LXFL 529 NSCLC): > 100 µM; TGI (KM12 colon): > 100 µM; TGI (OVCAR-4 ovarian): > 100 µM; TGI (TK-10 renal): > 100 µM; TGI (M19-MEL melanoma): > 100 µM; TGI (SK-MEL-28 melanoma): > 100 µM; TGI (NCI-H226 lung): > 100 µM; TGI (SK-MEL-5 melanoma): > 100 µM; TGI (A498 renal): > 100 µM; TGI (RPMI-8226 leukemia): > 100 µM; TGI (CCRF-CEM leukemia): > 100 µM; TGI (DMS 273 small cell lung): > 100 µM

Which TGI (HCT-15 colon) does the source give for CC(=O)/C(=C(/Br)I)c1ccccc1 here?
Its TGI is 17.7 µM.

And the TGI (SNB-19 CNS)?
Its TGI is 37.5 µM.

And the TGI (HS 578T breast)?
Its TGI is greater than 66 µM.

And the TGI (SK-MEL-2 melanoma)?
The TGI was 15.7 µM.

What about the TGI (OVCAR-5 ovarian) of the same compound?
The TGI was 32.1 µM.

What about the TGI (LOX IMVI melanoma) of the same compound?
The TGI was 22.5 µM.

And the TGI (NCI/ADR-RES ovarian)?
The TGI was 45 µM.

And the TGI (SN12C renal)?
Its TGI is 17.4 µM.

What about the TGI (MOLT-4 leukemia) of the same compound?
Its TGI is 20.5 µM.

And the TGI (IGROV1 ovarian)?
The TGI was 49.3 µM.

And the TGI (MDA-MB-435)?
Its TGI is 11.9 µM.

What about the TGI (SW-620 colon) of the same compound?
The TGI was 11.4 µM.

What about the TGI (SNB-75 CNS) of the same compound?
Its TGI is 39.6 µM.

And the TGI (UACC-257 melanoma)?
Its TGI is 25.4 µM.

And the TGI (NCI-H522 lung)?
Its TGI is 3.11 µM.

What about the TGI (SF-295 CNS) of the same compound?
Its TGI is 29 µM.

And the TGI (DU-145 prostate)?
The TGI was 31.4 µM.

What about the TGI (CAKI-1 renal) of the same compound?
Its TGI is 6.83 µM.

And the TGI (COLO 205 colon)?
The TGI was 26.4 µM.

What about the TGI (T-47D breast) of the same compound?
The TGI was 13.3 µM.

What about the TGI (U251 CNS) of the same compound?
The TGI was 26.5 µM.

And the TGI (EKVX NSCLC)?
Its TGI is 26.5 µM.

What about the TGI (MDA-MB-231 breast) of the same compound?
The TGI was 28.7 µM.

What about the TGI (SR leukemia) of the same compound?
The TGI was 13.5 µM.

What about the TGI (HCT-116 colon) of the same compound?
The TGI was 15.2 µM.

And the TGI (NCI-H460 lung)?
The TGI was 48.3 µM.

And the TGI (OVCAR-8 ovarian)?
Its TGI is 28.1 µM.

What about the TGI (HT29 colon) of the same compound?
The TGI was 13.8 µM.

And the TGI (MDA-N)?
The TGI was 14.8 µM.

What about the TGI (HOP-62 NSCLC) of the same compound?
The TGI was 29.7 µM.

And the TGI (MCF7 breast)?
Its TGI is 19.1 µM.

And the TGI (A549 NSCLC)?
The TGI was 51.7 µM.

What about the TGI (786-0 renal) of the same compound?
Its TGI is 28 µM.

And the TGI (M14 melanoma)?
The TGI was 21.3 µM.

What about the TGI (HL-60(TB) leukemia) of the same compound?
Its TGI is 4.95 µM.

And the TGI (RXF 393 renal)?
Its TGI is 13.3 µM.

And the TGI (PC-3 prostate)?
The TGI was 32.2 µM.

And the TGI (K-562 leukemia)?
Its TGI is greater than 31.6 µM.

What about the TGI (BT-549 breast) of the same compound?
The TGI was 6.33 µM.

What about the TGI (SF-268 CNS) of the same compound?
Its TGI is greater than 46.3 µM.

What about the TGI (NCI-H23 lung) of the same compound?
Its TGI is 16.8 µM.

What about the TGI (HOP-92 NSCLC) of the same compound?
Its TGI is 23.8 µM.

What about the TGI (UACC-62 melanoma) of the same compound?
Its TGI is greater than 48.4 µM.

What about the TGI (HCC-2998 colon) of the same compound?
Its TGI is 12.3 µM.

What about the TGI (OVCAR-3 ovarian) of the same compound?
Its TGI is 17.9 µM.

What about the TGI (SK-OV-3 ovarian) of the same compound?
Its TGI is greater than 64.5 µM.

What about the TGI (MALME-3M melanoma) of the same compound?
Its TGI is 23.1 µM.

What about the TGI (UO-31 renal) of the same compound?
Its TGI is 25.1 µM.

What about the TGI (ACHN renal) of the same compound?
The TGI was 27.6 µM.

And the TGI (SF-539 CNS)?
The TGI was 47.8 µM.

What about the TGI (KM12 colon) of the same compound?
The TGI was 28.2 µM.

What about the TGI (OVCAR-4 ovarian) of the same compound?
Its TGI is 25 µM.

What about the TGI (TK-10 renal) of the same compound?
Its TGI is 36.3 µM.

What about the TGI (SK-MEL-28 melanoma) of the same compound?
Its TGI is 26.5 µM.

What about the TGI (NCI-H226 lung) of the same compound?
Its TGI is 27.2 µM.

What about the TGI (SK-MEL-5 melanoma) of the same compound?
Its TGI is 30.8 µM.

And the TGI (A498 renal)?
The TGI was 28.5 µM.

And the TGI (RPMI-8226 leukemia)?
Its TGI is 9.35 µM.

What about the TGI (CCRF-CEM leukemia) of the same compound?
Its TGI is 11.3 µM.

From PubChem BioAssay (NCI)
